Consider one compound from patent US20200246316A1, “METHODS OF TREATING POST-SURGICAL PAIN WITH A THIAZOLINE ANTI-HYPERALGESIC AGENT” (CERSCI THERAPEUTICS, INC., priority 2019, published 2020).

As usually defined, the IC50 is the concentration that inhibits the measured activity by half.

Structures can show the parent of a compound that is named as a salt. Where two headings read alike, the source gives them in different places.

The subject of data set [1] is STZ-induced mechanical allodynia. The data set can be described thus: Streptozotocin (STZ) diabetic neuropathy model. The data set is classed as in vivo, mice. The settings on record: FIG. 14. How it is done:
Streptozotocin (STZ) destroys insulin-producing cells and generates a diabetic phenotype in mice. Animals were dosed with STZ on day −7. By day 0, animals are hyperglycemic and hyperalgesic (day 0 BL).

The target of the next data set is T1, CYP2C9 (Homo sapiens, UniProt P11712).
T1 construct: tissue BD Gentest; host or cells: human liver microsomes
Nature of the data set: CYP inhibition in human liver microsomes. The data set is classed as in vitro ADME. As for the experimental part: (§1) At varying concentrations, Compound 1 was incubated with human liver microsomes (HLM) in the presence of known substrates (see below) of specific CYP isoforms, in order to measure inhibition induced by Compound 1. Microsomes were incubated with known inhibitors (positive controls) of each CYP isoform, in the presence of substrate, in order to measure the metabolic activity of the microsomes.
On the technique in general: Liver microsomes are a subcellular fraction often used to study metabolism.

In the next data set the target is T2, CYP1A2 (Homo sapiens, UniProt P05177).
T2 construct: tissue BD Gentest; host or cells: human liver microsomes
T2 sequence (P05177 1-516): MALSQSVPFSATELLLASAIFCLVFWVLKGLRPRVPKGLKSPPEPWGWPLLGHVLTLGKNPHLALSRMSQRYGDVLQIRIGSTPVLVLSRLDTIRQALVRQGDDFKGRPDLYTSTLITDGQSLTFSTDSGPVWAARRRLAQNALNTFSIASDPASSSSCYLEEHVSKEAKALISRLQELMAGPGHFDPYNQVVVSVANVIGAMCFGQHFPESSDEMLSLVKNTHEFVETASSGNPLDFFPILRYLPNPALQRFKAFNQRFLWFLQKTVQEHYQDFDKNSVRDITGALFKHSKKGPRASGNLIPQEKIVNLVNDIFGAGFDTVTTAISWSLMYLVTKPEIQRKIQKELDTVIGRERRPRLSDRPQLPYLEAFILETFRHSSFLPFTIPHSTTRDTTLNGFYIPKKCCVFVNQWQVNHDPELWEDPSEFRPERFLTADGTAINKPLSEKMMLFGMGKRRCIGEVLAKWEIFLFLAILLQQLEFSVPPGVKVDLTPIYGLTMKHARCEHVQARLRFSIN
Nature of the data set: CYP inhibition in human liver microsomes. The data set is classed as in vitro ADME. As for the experimental part: as §1

For another data set, the target named is T3, CYP2C19 (Homo sapiens, UniProt P33261).
T3 construct: tissue BD Gentest; host or cells: human liver microsomes
The data set can be described thus: CYP inhibition in human liver microsomes. The data set is classed as in vitro ADME. As for the experimental part: as §1

Another data set deals with T4, CYP2D6 (Homo sapiens, UniProt P10635).
T4 construct: tissue BD Gentest; host or cells: human liver microsomes
The data set can be described thus: CYP inhibition in human liver microsomes. The data set is classed as in vitro ADME. As for the experimental part:
as §1

For a further data set, the target named is T5, CYP3A4 (Homo sapiens, UniProt P08684).
T5 construct: tissue BD Gentest; host or cells: human liver microsomes
Nature of the data set: CYP inhibition in human liver microsomes. The data set is classed as in vitro ADME. As for the experimental part: as §1

Another data set concerns PN-mediated cytotoxicity. Nature of the data set: Cell-based assays of PN-mediated cytotoxicity. The source says:
In cell-based assays of PN-mediated cytotoxicity, Compound 1 is protective. […] Chemically, Compound 1 can also react stoichiometrically with peroxynitrite to form a para-nitro adduct. Without being bound by theory, by targeting and removing peroxynitrite and peroxide, Compound 1 can disrupt the ensuing cascades that lead to hypersensitivity (protein modification, ion channel hyperexcitation) thus providing a long duration event in terms of pain relief.

T1 sequence (P11712 whole entry): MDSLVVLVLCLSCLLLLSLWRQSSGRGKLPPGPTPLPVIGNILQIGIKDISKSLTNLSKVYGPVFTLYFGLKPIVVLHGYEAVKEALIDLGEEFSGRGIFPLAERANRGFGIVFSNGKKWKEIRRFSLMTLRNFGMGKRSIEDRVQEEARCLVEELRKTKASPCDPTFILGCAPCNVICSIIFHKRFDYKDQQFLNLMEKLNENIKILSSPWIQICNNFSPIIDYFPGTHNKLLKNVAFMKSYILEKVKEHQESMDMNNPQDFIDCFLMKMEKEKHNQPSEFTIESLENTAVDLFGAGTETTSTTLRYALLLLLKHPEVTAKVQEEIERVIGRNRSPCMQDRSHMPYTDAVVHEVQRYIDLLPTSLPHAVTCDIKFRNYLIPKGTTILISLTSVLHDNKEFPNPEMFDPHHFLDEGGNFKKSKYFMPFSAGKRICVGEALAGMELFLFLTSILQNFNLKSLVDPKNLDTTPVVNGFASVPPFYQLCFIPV
T4 sequence (P10635 whole entry): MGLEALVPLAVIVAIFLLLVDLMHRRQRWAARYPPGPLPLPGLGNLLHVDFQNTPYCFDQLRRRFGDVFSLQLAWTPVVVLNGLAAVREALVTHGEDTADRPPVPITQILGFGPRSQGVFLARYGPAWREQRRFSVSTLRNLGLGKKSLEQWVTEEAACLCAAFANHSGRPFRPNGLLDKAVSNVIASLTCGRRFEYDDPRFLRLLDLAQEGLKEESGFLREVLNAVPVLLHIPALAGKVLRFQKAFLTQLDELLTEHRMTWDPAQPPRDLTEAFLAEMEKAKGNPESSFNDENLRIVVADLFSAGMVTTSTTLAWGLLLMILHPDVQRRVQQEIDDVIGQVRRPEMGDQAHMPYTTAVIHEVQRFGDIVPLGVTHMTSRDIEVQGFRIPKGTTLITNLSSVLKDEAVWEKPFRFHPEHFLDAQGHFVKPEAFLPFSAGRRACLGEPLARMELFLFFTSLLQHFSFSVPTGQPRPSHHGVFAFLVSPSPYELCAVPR
T3 sequence (P33261 whole entry): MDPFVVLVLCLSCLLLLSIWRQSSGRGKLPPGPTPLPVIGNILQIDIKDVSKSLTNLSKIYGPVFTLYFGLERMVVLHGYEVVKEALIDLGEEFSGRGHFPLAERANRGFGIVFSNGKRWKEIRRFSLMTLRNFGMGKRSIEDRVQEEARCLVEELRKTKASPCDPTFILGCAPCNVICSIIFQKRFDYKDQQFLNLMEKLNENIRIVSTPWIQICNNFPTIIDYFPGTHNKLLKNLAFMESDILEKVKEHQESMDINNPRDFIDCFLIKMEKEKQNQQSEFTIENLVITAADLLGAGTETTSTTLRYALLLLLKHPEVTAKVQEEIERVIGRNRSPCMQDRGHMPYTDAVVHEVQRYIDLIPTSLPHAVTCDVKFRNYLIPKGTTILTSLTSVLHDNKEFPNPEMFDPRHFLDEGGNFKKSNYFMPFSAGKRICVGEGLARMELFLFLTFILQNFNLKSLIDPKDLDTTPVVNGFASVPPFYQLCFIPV
T5 sequence (P08684 whole entry): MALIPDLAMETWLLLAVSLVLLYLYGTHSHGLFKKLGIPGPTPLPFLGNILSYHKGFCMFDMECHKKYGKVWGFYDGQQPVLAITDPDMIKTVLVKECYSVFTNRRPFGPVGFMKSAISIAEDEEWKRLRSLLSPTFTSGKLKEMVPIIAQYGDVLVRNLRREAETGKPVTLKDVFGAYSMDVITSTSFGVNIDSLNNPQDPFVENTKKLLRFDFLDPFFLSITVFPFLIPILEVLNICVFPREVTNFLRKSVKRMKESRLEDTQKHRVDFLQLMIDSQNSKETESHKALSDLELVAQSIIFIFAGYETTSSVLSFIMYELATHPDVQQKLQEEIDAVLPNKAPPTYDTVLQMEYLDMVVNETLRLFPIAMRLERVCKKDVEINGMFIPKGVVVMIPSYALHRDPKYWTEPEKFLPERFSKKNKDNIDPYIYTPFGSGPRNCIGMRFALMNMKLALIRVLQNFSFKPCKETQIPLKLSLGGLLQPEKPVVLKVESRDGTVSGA

For `CC1(C)SC(Nc2ccccc2O)=N[C@@H]1C(=O)O` [Compound 1, (R)-2-(2-hydroxyphenylamino)-5,5-dimethyl-4,5-dihydrothiazole-4-carboxylic acid mono-hydrochloride], the STZ-induced mechanical allodynia result in data set [1] is listed as “blocks STZ-induced mechanical allodynia”. In addition, the “CYP inhibition” value is on record as “did not inhibit” at CYP2C9 (CYP2C9, up to 100 μM); “did not inhibit” at CYP1A2 (CYP1A2, up to 100 μM); “did not inhibit” at CYP2C19 (CYP2C19, up to 100 μM); “did not inhibit” on CYP2D6 (CYP2D6, up to 100 μM); “did not inhibit” at CYP3A4 (CYP3A4, up to 100 μM). Besides, the IC50 at CYP2C9 (CYP2C9, read-out: IC50) is > 100 µM; on CYP2C9 (human liver microsomes, known substrate of the CYP isoform, read-out: IC50 (μM) CYP 2C9), > 100 µM; at CYP1A2 (CYP1A2, read-out: IC50), > 100 µM; at CYP1A2 (human liver microsomes, known substrate of the CYP isoform, read-out: IC50 (μM) CYP 1A2) it was > 100 µM; at CYP2C19 (CYP2C19, read-out: IC50) it was > 100 µM; on CYP2C19 (human liver microsomes, known substrate of the CYP isoform, read-out: IC50 (μM) CYP 2C19), > 100 µM. The IC50 was > 100 µM at CYP2D6 (CYP2D6, read-out: IC50); > 100 µM on CYP2D6 (human liver microsomes, known substrate of the CYP isoform, read-out: IC50 (μM) CYP 2D6); > 100 µM at CYP3A4 (CYP3A4, read-out: IC50); > 100 µM on CYP3A4 (human liver microsomes, known substrate of the CYP isoform, read-out: IC50 (μM) CYP 3A4). Further, the “protection from PN-mediated cytotoxicity” value with PN-mediated cytotoxicity is recorded as “protective”.
